This note sets out measurements from US10654834B2 (Venenum Biodesign, LLC, priority 2016, dated 2020).

The target in one experiment is T1, mouse TGR5 receptor (Mus musculus, UniProt Q80SS6).
T1 construct: host or cells: HEK293-EBNA (293 c18, ATCC CRL10852)
T1 sequence (Q80SS6 1-329): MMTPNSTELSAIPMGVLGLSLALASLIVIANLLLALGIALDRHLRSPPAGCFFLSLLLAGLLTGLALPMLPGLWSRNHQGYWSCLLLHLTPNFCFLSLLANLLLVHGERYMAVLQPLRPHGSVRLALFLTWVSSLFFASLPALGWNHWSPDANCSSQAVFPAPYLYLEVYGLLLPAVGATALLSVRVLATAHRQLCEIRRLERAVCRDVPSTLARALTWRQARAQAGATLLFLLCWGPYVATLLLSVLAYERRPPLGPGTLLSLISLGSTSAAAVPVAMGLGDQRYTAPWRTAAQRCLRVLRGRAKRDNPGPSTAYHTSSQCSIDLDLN
The experiment is described as follows: Mouse TGR5 luminescent cAMP production assay (HEK293-EBNA cells, DiscoveRx cAMP XS+ kit). The format is cell-based. To be noted: HEK293-EBNA cells overexpressing mouse TGR5, luminescent cAMP assay; read-out: Mouse TGR5 Lum. cAMP Activity (EC50). On the procedure: Mouse TGR5 cAMP Production Assay
Compounds of the present invention were evaluated for their ability to induce cAMP production in HEK-EBNA cells overexpressing the mouse TGR5 receptor. Human embryonic kidney cells (HEK293-EBNA) stably expressing mouse TGR5 receptor were established using the following procedure. Specifically, a commercially obtained gene encoding mouse TGR5 (accession number BC116914) from Thermo Scientific (Waltham, Mass.) was cloned into an episomal expression vector. The resulting expression plasmid was then transfected into 293 c18 (ATCC® CRL10852™) cells, which express the Epstein-Barr virus nuclear antigen EBNA1 and can support the replication of episomal vectors. Selection for the plasmid was maintained with Hygromycin B. Cells were cultured and maintained in DMEM (Sigma; cat #6429) supplemented with 10% Fetal Bovine Serum, 1% penicillin/streptomycin, 2 mM L-alanine L-glutamine (GlutaMax), and 250 μg/mL Hygromycin.
We developed two cAMP production assays.
(i) Luminescent cAMP Production Assay
In this first cAMP production assay, the cAMP production was measured using DiscoveRx's cAMP XS+ kit following the manufacturer's recommended protocol. Briefly, HEK293-EBNA cells stably overexpressing mouse TGR5 were harvested using non-enzymatic cell dissociation buffer (Sigma-Aldrich, St. Louis, Mo.), spun down, then resuspended in serum-free DMEM with 500 μM IBMX at a density of 1.25×10^6 cells/mL. 500 μL of cAMP antibody solution was added to 500 μL of cell suspension and incubated at room temperature for 20 min.
Test compounds were serially diluted (half-log dilutions) in DMSO and then further diluted 1:50 in PBS, 10 mM HEPES buffer. 2 μL of serially diluted compound was added to a 384-well low volume plate (Greiner cat #784075) and centrifuged briefly. 2 μl of the cell/cAMP antibody mixture was then added to each compound-containing well and allowed to incubate at room temperature for one (1) hour. Following incubation, the XS+ kits' ED/Lysis/CL Substrate Working Solution was prepared following the manufacturer's recommended protocol and 4 μL was added to each well of the plate. The plate was then incubated for one (1) hour at room temperature. Following incubation, 4 μL of (Enzyme Acceptor) EA reagent was added to the plate and allowed to incubate overnight at room temperature. Luminescent signal was then detected using the Viewlux instrument (PerkinElmer, Waltham, Mass.).
In Table 52, EC50 values for both human and mouse cells were determined according to the TGR5 cAMP assays described above. […]
In general terms: Changes in cAMP serve as a functional read-out for many G protein-coupled receptors.

For a further experiment, the target named is T2, human TGR5 receptor (Homo sapiens, UniProt Q8TDU6).
T2 construct: host or cells: CHO-K1 (hTGR5-CHO)
T2 sequence (Q8TDU6 1-330): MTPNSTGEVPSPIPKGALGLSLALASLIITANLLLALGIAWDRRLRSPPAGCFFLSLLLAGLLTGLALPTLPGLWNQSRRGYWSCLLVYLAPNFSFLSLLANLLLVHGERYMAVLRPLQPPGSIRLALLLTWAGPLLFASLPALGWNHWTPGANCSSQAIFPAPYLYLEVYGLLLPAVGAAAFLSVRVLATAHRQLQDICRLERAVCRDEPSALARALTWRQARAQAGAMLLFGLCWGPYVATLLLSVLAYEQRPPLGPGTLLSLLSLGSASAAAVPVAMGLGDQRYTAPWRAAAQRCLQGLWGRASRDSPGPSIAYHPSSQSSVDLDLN
The experiment can be described thus: Human TGR5 cAMP production assay (hTGR5-CHO cells, DiscoveRx cAMP XS+ kit). The experiment is classed as cell-based. To be noted: luminescent cAMP assay, read-out: Human TGR5 Lum. cAMP Activity (EC50). In a few lines:
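CHO-K1 cells stably expressing hTGR5, in PBS with IBMX and cAMP antibody, treated with half-log compound dilutions for 1 h at room temperature. cAMP measured by enzyme-fragment complementation luminescence after overnight detection; EC50 values reported.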

The structures appear in SMILES notation.

The term EC50 denotes the concentration that produces a half-maximal response. For `N#Cc1ccc(CCNC(=O)[C@@H]2CCCN(c3cc(N4CCN(CCO)CC4)nc(C(F)(F)F)n3)C2)cc1` [Compound 313, (R)-N-(4-cyanophenethyl)-1-(6-(4-(2-hydroxyethyl)piperazin-1-yl)-2-(trifluoromethyl)pyrimidin-4-yl)piperidine-3-carboxamide], the EC50 on mouse TGR5 receptor and on human TGR5 receptor was 100 to 999 nM each time.

As to `N#Cc1ccc(CCNC(=O)[C@@H]2CCN2c2cc(OC3CCOCC3)nc(C(F)(F)F)n2)cc1` [Compound 242, (S)—N-(4-cyanophenethyl)-1-(6-((tetrahydro-2H-pyran-4-yl)oxy)-2-(trifluoromethyl)pyrimidin-4-yl)azetidine-2-carboxamide], the EC50 at mouse TGR5 receptor is below 100 nM; at human TGR5 receptor it was 100 to 999 nM.

As for `N#Cc1ccc(CCNC(=O)[C@@H]2CCCN2c2cc(-c3ccccc3)nc(C(F)(F)F)n2)cc1` [Compound 144, (S)-N-(4-cyanophenethyl)-1-(6-phenyl-2-(trifluoromethyl)pyrimidin-4-yl)pyrrolidine-2-carboxamide], the EC50 at mouse TGR5 receptor and on human TGR5 receptor was 100 to 999 nM throughout.

For the compound `N#Cc1ccc(CCNC(=O)[C@@H]2CCCN2c2cc(-c3ccc(C(F)(F)F)cc3)nc(C(F)(F)F)n2)cc1` [Compound 147, (S)-N-(4-cyanophenethyl)-1-(2-(trifluoromethyl)-6-(4-(trifluoromethyl)phenyl)pyrimidin-4-yl)pyrrolidine-2-carboxamide], the EC50 at mouse TGR5 receptor and on human TGR5 receptor was 100 to 999 nM in each case.

On to `N#Cc1ccc(CCNC(=O)[C@@H]2CCCN2c2cc(-c3cccs3)nc(C(F)(F)F)n2)cc1` [Compound 165, (S)-N-(4-cyanophenthyl)-1-(6-(thiophene-2-yl)-2-(trifluoromethyl)pyrimidin-4-yl)pyrrolidine-2-carboxamide], for which the EC50 at mouse TGR5 receptor and at human TGR5 receptor was 100 to 999 nM each time.

For the compound `N#Cc1ccc(CCNC(=O)C2CCN2c2cc(OC3CCOCC3)nc(C(F)(F)F)n2)cc1` (stereo not shown) [Compound 244, N-(4-cyanophenethyl)-1-(6-((tetra-hydro-2H-pyran-4-yl)oxy)-2-(trifluoromethyl)pyrimidin-4-yl)azetidine-2-carboxamide], the EC50 on mouse TGR5 receptor is below 100 nM; at human TGR5 receptor it was 100 to 999 nM.

On to `COCCOc1cc(N2CCC[C@H]2C(=O)NCCc2ccc(C(F)(F)F)cc2)nc(C(F)(F)F)n1` [Compound 42, (S)-1-(6-(2-methoxyethoxy)-2-(trifluoromethyl)pyrimidin-4-yl)-N-(4-(trifluoromethyl)phenethyl)pyrrolidine-2-carboxamide], for which the EC50 on mouse TGR5 receptor and at human TGR5 receptor was 100 to 999 nM in each case.

`N#Cc1ccc(CCNC(=O)[C@@H]2CCCN2c2cc(OC3CCNCC3)nc(C(F)(F)F)n2)cc1` [Compound 51, (S)-N-(4-cyanophenethyl)-1-(6-(piperidin-4-yloxy)-2-(trifluoromethyl)pyrimidin-4-yl)pyrrolidine-2-carboxamide]: the results for the EC50 at mouse TGR5 receptor and on human TGR5 receptor were 100 to 999 nM and 1000 to 30000 nM, respectively.

Consider `O=C(NCCc1ccc(C(F)(F)F)cc1)[C@@H]1CCCN(c2cc(NC3CCOCC3)nc(C(F)(F)F)n2)C1` [Compound 326, (R)-1-(6-((tetrahydro-2H-pyran-4-yl)amino)-2-(trifluoromethyl)-pyrimidin-4-yl)-N-(4-(trifluoromethyl)phenethyl)piperidine-3-carboxamide], for which the EC50 was below 100 nM at mouse TGR5 receptor and 100 to 999 nM on human TGR5 receptor.

On to `N#Cc1ccc(CCNC(=O)C2CCN2c2cc(-c3ccncc3)nc(C(F)(F)F)n2)cc1` (stereo not shown) [Compound 307, N-(4-cyanophenethyl)-1-(6-(pyridin-4-yl)-2-(trifluoromethyl)pyrimidin-4-yl)azetidine-2-carboxamide], for which the values for the EC50 on mouse TGR5 receptor and at human TGR5 receptor were below 100 nM and 100 to 999 nM, respectively.

Consider `COCC1CCN(c2cc(N3CC[C@H]3C(=O)NCCc3ccc(C#N)cc3)nc(C(F)(F)F)n2)CC1` [Compound 222, (S)-N-(4-cyanophenethyl)-1-(6-(4-(methoxymethyl)piperidin-1-yl)-2-(trifluoromethyl)pyrimidin-4-yl)azetidine-2-carboxamide], for which the EC50 was 100 to 999 nM at mouse TGR5 receptor and below 100 nM on human TGR5 receptor.

For the compound `CCOc1ccc(-c2cc(N3CCC[C@H]3C(=O)NCCc3ccc(C#N)cc3)nc(C(F)(F)F)n2)cc1` [Compound 151, (S)-N-(4-cyanophenethyl)-1-(6-(4-ethoxyphenyl)-2-(trifluoromethyl)pyrimidin-4-yl)pyrrolidine-2-carboxamide], the EC50 at mouse TGR5 receptor and at human TGR5 receptor was 100 to 999 nM in each case.

Turning to `N#Cc1ccc(CCNC(=O)[C@@H]2CCCN2c2cc(-c3ccsc3)nc(C(F)(F)F)n2)cc1` [Compound 158, (S)-N-(4-cyanophenethyl)-1-(6-(thiophen-3-yl)-2-(trifluoromethyl)pyrimidin-4-yl)pyrrolidine-2-carboxamide], the EC50 on mouse TGR5 receptor was below 100 nM; on human TGR5 receptor, 100 to 999 nM.

As to `O=C(NCCc1ccc(C(F)(F)F)cc1)[C@@H]1CCCN1c1cc(NCc2cccnc2)nc(C(F)(F)F)n1` [Compound 4], the EC50 at mouse TGR5 receptor was 100 to 999 nM; on human TGR5 receptor, 1000 to 30000 nM.

In the case of `O=C(NCCc1ccc(C(F)(F)F)cc1)[C@@H]1CCCN1c1cc(-c2ccccn2)nc(C(F)(F)F)n1` [Compound 163, (S)-1-(6-(pyridin-2-yl)-2-(trifluoromethyl)pyrimidin-4-yl)-N-(4-(trifluoromethyl)phenethyl)-pyrrolidine-2-carboxamide], the EC50 on mouse TGR5 receptor lay within 1000 to 30000 nM; at human TGR5 receptor it was 100 to 999 nM.

As to `N#Cc1ccc(CCNC(=O)[C@@H]2CCCN2c2cc(-c3ccccn3)nc(C(F)(F)F)n2)cc1` [Compound 162, (S)-N-(4-cyanophenethyl)-1-(6-(pyridin-2-yl)-2-(trifluoromethyl)pyrimidin-4-yl)pyrrolidine-2-carboxamide], the EC50 at mouse TGR5 receptor and at human TGR5 receptor was 100 to 999 nM in each case.

Regarding `CNCC1CCN(c2cc(N3CCC[C@H]3C(=O)NCCc3ccc(C#N)cc3)nc(C(F)(F)F)n2)CC1` [Compound 49], the EC50 at mouse TGR5 receptor and on human TGR5 receptor was 100 to 999 nM each time.

Take `Cc1noc(C)c1-c1cc(N2CCC[C@H]2C(=O)NCCc2ccc(C#N)cc2)nc(C(F)(F)F)n1` [Compound 156, (S)-N-(4-cyanophenethyl)-1-(6-(3,5-dimethylisoxazol-4-yl)-2-(trifluoromethyl)pyrimidin-4-yl)pyrrolidine-2-carboxamide]: the EC50 at mouse TGR5 receptor and on human TGR5 receptor was 1000 to 30000 nM throughout.

Turning to `CC(C)(C)OC(=O)N1CCC(Nc2cc(N3CCC[C@H]3C(=O)NCCc3ccc(C#N)cc3)nc(C(F)(F)F)n2)CC1` [Compound 15], the figures for the EC50 on mouse TGR5 receptor and at human TGR5 receptor were below 100 nM and 1000 to 30000 nM, respectively.

As for `Cn1ccc2cc(-c3cc(N4CCC[C@H]4C(=O)NCCc4ccc(C#N)cc4)nc(C(F)(F)F)n3)ccc21` [Compound 169, (S)-N-(4-cyanophenethyl)-1-(6-(1-methyl-1H-indol-5-yl)-2-(trifluoromethyl)pyrimidin-4-yl)pyrrolidine-2-carboxamide], the values for the EC50 at mouse TGR5 receptor and at human TGR5 receptor were 100 to 999 nM and 1000 to 30000 nM, respectively.
